The source of these data is US20220193447A1, “METHODS FOR MODULATION OF AND SENSITIZATION TO SERINE AND GLYCINE LIMITATION” (Faeth Therapeutics, Inc., priority 2020, published 2022).

Experiment [1] concerns IDO1 expression. Briefly: Immunoblotting of IDO1 in human pancreatic cancer cells. In kind it is cell-based. The settings on record: for IDO1 protein levels: 2D or 3D culture, MG132 20 μM 16 h, bafilomycin A1 100 nM.
For experiment [2], the system named is ATF-4 response. Put plainly: Western blots of SSP enzymes and ATF-4 response. In kind it is cell-based, human. Conditions: MG-132 10 μM. How it is done:
Protein lysates were processed in RIPA-buffer supplemented with phosphatase inhibitor cocktail and complete protease inhibitors. Lysates were separated using precast NuPAGE 4-12% Bis-Tris Protein gels and transferred to nitrocellulose membranes. Following incubation with primary antibodies, appropriate secondary antibodies were used to detect the proteins. Westerns scanned using the Odyssey CLx or visualized using ECL chemiluminescence detection kits.
Cells were grown for 24 hours in −SG medium or CM and treated with 10 μM PH755 diluted in DMSO or DMSO alone. To evaluate protein synthesis, puromycin (final concentration: 90 μM) was added to each well 10 minutes prior harvesting the cells for western blot analysis, except in the negative control well. Where indicated, cells grown in CM medium were treated with cycloheximide (10 μg/mL) for the last 5 hours providing a control for translation inhibition. Incorporation of puromycin into newly synthesized proteins was assessed by Western blot using an anti-puromycin antibody. To assess the accumulation of short-lived proteins in response to proteasome inhibition, cells grown in −SG medium or CM plus or minus 10 μM PH755 for 24 hours were treated for the last 6 hours with the proteasome inhibitor MG-132 (10 μM) before harvesting the cells for western blot analysis.
In general terms: A western blot detects proteins with antibodies after separation by electrophoresis.

The test system of experiment [3] is KPC cells. Briefly: KPC cell proliferation with or without serine. The format is cell-based, mouse. The settings on record: epacadostat 1 μM, −Serine medium, 5 days. How it is done: KPC cells (tumor cells derived from a pancreatic tumor of a Kras' p53″^t genetically engineered mouse) were seeded into 24-well plates and allowed to adhere overnight. […] Cell number was recorded every 24 h for 5 days. A time zero plate was used to calculate the starting cell number.

Experiment [4] concerns HT-29 and HCT116 cells. Conditions: supplement alone (1 mM sodium formate or 0.4 mM glycine).
Protocol: Cells (2×10^4 to 3×10^4 cells/well depending on the cell lines) were plated in 24-well plates in their regular medium. […] For the counting step, cells were trypsinized, suspended in PBS-EDTA, and counted with a CASY Model TT Cell Counter. Relative cell number at each time point was calculated based on the number of cells measured before the medium change.
Experiment [5] relates to IDO1 expression. Put plainly: Immunoblotting of IDO1 in KPC cells. The format is cell-based, mouse.

Where a SMILES comes first, the peptide text is derived from it. The star is where a group is joined. Cbz = O=C(OCc1ccccc1)*

Consider `CC(C)(C)c1nc2c3cc[nH]c(=O)c3c3cc(F)ccc3c2[nH]1` [JAKi], for which the “up-regulation of IDO1 protein levels in AI-grown cells” value in experiment [1] (CFPAC-1 or HPAF-II cells, JAKi 1 μM, 16 h) is “blocked”. As for `CC(C)C[C@@H](C=O)NC(=O)[C@H](CC(C)C)NC(=O)[C@H](CC(C)C)NC(=O)OCc1ccccc1` [MG-132] (Cbz-Leu-Leu-Leu-aldehyde), in experiment [2] (cells in complete medium), the ATF-4 protein level result is “strong accumulation of ATF-4”. Also, the “ATF-4 protein levels and ASNS, PSAT expression” value in experiment [2] (cells in −SG medium plus PH755) was “no restoration of ATF-4 protein levels”. Also, in experiment [1], the IDO1 protein levels entry is given as “no effect on IDO1 protein levels”. As for `CO/C1=C\C(C)=C\[C@@H](C)[C@@H](O)[C@@H](C)C/C(C)=C/C=C/[C@H](OC)[C@@H]([C@@H](C)[C@@H](O)[C@H](C)[C@@]2(O)C[C@@H](O)[C@H](C)[C@@H](C(C)C)O2)OC1=O` [bafilomycin, bafilomycin A1], the IDO1 protein levels result in experiment [1] was “no effect on IDO1 protein levels”. Turning to `NS(=O)(=O)NCCNc1nonc1C(=NO)Nc1ccc(F)c(Br)c1` [epacadostat], the “antiproliferative effect of serine starvation” value in experiment [3] is “enhances the antiproliferative effect”.

`O=C[O-].[Na+]` [formate, sodium formate]: the “growth of −SG plus PH755 treated cells” value in experiment [4] is recorded as “did not restore growth”. For the molecule `NCC(=O)O` [glycine], the “growth of −SG plus PH755 treated cells” value in experiment [4] was “did not restore growth”. “human form of IFNγ: human cytokine IFNγ, canonical activator of IDO1”: the IDO1 expression result in experiment [1] (panel of human pancreatic cancer cells, IFNγ 1 ng/ml, 24 h) is “consistently increased IDO1 expression”; in experiment [5] (murine cells, human form of IFNγ) it was “did not impact IDO1 expression in murine cells”.

B1: murine form of cytokine IFNγ: murine cytokine IFNγ, a canonical activator of IDO1 (protein, UniProt P01580 23-155, looked up)
Interferon gamma: HGTVIESLESLNNYFNSSGIDVEEKSLFLDIWRNWQKDGDMKILQSQIISFYLRLFEVLKDNQAISNNISVIESHLITTFFSNSKAKKDAFMSIAKFEVNNPQVQRQAFNELIRVVHQLLPESSLRKRKRSRC
B1: the IDO1 expression result in experiment [5] (KPC cells, murine IFNγ 1 ng/ml, 24 h) is listed as “increased IDO1 expression in vitro”.
